From PubChem BioAssay AID1259407 (Chemical Carcinogenesis Research Information System (CCRIS), 2018)
Active and inactive are the calls of the source. No rule for the calls is given here.

Test system: CCRIS mutagenicity, Ames/micronucleus/aberration tests
Assay: CCRIS mutagenicity studies
Conditions: Test System: AMES SALMONELLA TYPHIMURIUM
[1] = Strain/Indicator: TA97, Metabolic Activation: NONE, Method: PREINCUBATION
[2] = Strain/Indicator: TA98, Metabolic Activation: HAMSTER, LIVER, S-9, AROCLOR 1254 (10%), Method: PREINCUBATION
[3] = Strain/Indicator: TA98, Metabolic Activation: RAT, LIVER, S-9, AROCLOR 1254 (10%), Method: PREINCUBATION
[4] = Strain/Indicator: TA100, Metabolic Activation: HAMSTER, LIVER, S-9, AROCLOR 1254 (10%), Method: PREINCUBATION
[5] = Strain/Indicator: TA100, Metabolic Activation: NONE, Method: PREINCUBATION
[6] = Strain/Indicator: TA100, Metabolic Activation: RAT, LIVER, S-9, AROCLOR 1254 (10%), Method: PREINCUBATION
[7] = Strain/Indicator: TA1535, Metabolic Activation: HAMSTER, LIVER, S-9, AROCLOR 1254 (10%), Method: PREINCUBATION
[8] = Strain/Indicator: TA1535, Metabolic Activation: NONE, Method: PREINCUBATION
[9] = Strain/Indicator: TA1535, Metabolic Activation: RAT, LIVER, S-9, AROCLOR 1254 (10%), Method: PREINCUBATION

SMILES: OCC(Cl)CCl (stereo unspecified)
- mutagenic call (Strain/Indicator: TA97, Metabolic Activation: HAMSTER, LIVER, S-9, AROCLOR 1254 (10%), Method: PREINCUBATION): active; positive
- mutagenic call [1]: active; positive
- mutagenic call (Strain/Indicator: TA97, Metabolic Activation: RAT, LIVER, S-9, AROCLOR 1254 (10%), Method: PREINCUBATION): active; positive
- mutagenic call [2]: active; positive
- mutagenic call [3]: active; positive
- mutagenic call [4]: active; positive
- mutagenic call [5]: active; positive
- mutagenic call (Strain/Indicator: TA100, Metabolic Activation: NONE, Method: STANDARD PLATE): active; positive
- mutagenic call [6]: active; positive
- mutagenic call (Strain/Indicator: TA100, Metabolic Activation: RAT, LIVER, S-9, AROCLOR 1254, Method: STANDARD PLATE): active; positive
- mutagenic call (Strain/Indicator: TA100, Metabolic Activation: RAT, LIVER, S-9, KANECHLOR 500, Method: PREINCUBATION): active; positive
- mutagenic call [7]: active; positive
- mutagenic call [8]: active; positive
- mutagenic call (Strain/Indicator: TA1535, Metabolic Activation: NONE, Method: STANDARD PLATE): active; positive
- mutagenic call [9]: active; positive
- mutagenic call (Strain/Indicator: TA1535, Metabolic Activation: RAT, LIVER, S-9, AROCLOR 1254, Method: STANDARD PLATE): active; positive

SMILES: O=C(O)CS
- mutagenic call (Strain/Indicator: TA97, Metabolic Activation: HAMSTER, LIVER, S-9, AROCLOR 1254 (10 OR 30%), Method: PREINCUBATION): inactive; negative
- mutagenic call [1]: inactive; negative
- mutagenic call (Strain/Indicator: TA97, Metabolic Activation: RAT, LIVER, S-9, AROCLOR 1254 (10 OR 30%), Method: PREINCUBATION): inactive; negative
- mutagenic call [2]: inactive; negative
- mutagenic call (Strain/Indicator: TA98, Metabolic Activation: HAMSTER, LIVER, S-9, AROCLOR 1254 (10 OR 30%), Method: PREINCUBATION): inactive; negative
- mutagenic call (Strain/Indicator: TA98, Metabolic Activation: NONE, Method: PREINCUBATION): inactive; negative
- mutagenic call [3]: inactive; negative
- mutagenic call (Strain/Indicator: TA98, Metabolic Activation: RAT, LIVER, S-9, AROCLOR 1254 (10 OR 30%), Method: PREINCUBATION): inactive; negative
- mutagenic call [4]: inactive; negative
- mutagenic call (Strain/Indicator: TA100, Metabolic Activation: HAMSTER, LIVER, S-9, AROCLOR 1254 (10 OR 30%), Method: PREINCUBATION): inactive; negative
- mutagenic call [5]: inactive; negative
- mutagenic call [6]: inactive; negative
- mutagenic call (Strain/Indicator: TA100, Metabolic Activation: RAT, LIVER, S-9, AROCLOR 1254 (10 OR 30%), Method: PREINCUBATION): inactive; negative
- mutagenic call [7]: inactive; negative
- mutagenic call (Strain/Indicator: TA1535, Metabolic Activation: HAMSTER, LIVER, S-9, AROCLOR 1254 (10 OR 30%), Method: PREINCUBATION): inactive; negative
- mutagenic call [8]: inactive; negative
- mutagenic call [9]: inactive; negative
- mutagenic call (Strain/Indicator: TA1535, Metabolic Activation: RAT, LIVER, S-9, AROCLOR 1254 (10 OR 30%), Method: PREINCUBATION): inactive; negative
- mutagenic call (Strain/Indicator: TA1537, Metabolic Activation: HAMSTER, LIVER, S-9, AROCLOR 1254 (10%), Method: PREINCUBATION): inactive; negative
- mutagenic call (Strain/Indicator: TA1537, Metabolic Activation: NONE, Method: PREINCUBATION): inactive; negative
- mutagenic call (Strain/Indicator: TA1537, Metabolic Activation: RAT, LIVER, S-9, AROCLOR 1254 (10%), Method: PREINCUBATION): inactive; negative

SMILES: c1ccc(-c2ccncc2)nc1
- mutagenic call (Strain/Indicator: TA97, Metabolic Activation: RAT, LIVER, S-9, PHENOBARBITAL, Method: STANDARD PLATE): inactive; negative
- mutagenic call (Strain/Indicator: TA98, Metabolic Activation: RAT, LIVER, S-9, PHENOBARBITAL, Method: STANDARD PLATE): active; positive
- mutagenic call (Strain/Indicator: TA100, Metabolic Activation: RAT, LIVER, S-9, PHENOBARBITAL, Method: STANDARD PLATE): inactive; negative
- mutagenic call (Strain/Indicator: TA1535, Metabolic Activation: RAT, LIVER, S-9, PHENOBARBITAL, Method: STANDARD PLATE): inactive; negative
- mutagenic call (Strain/Indicator: TA1537, Metabolic Activation: RAT, LIVER, S-9, PHENOBARBITAL, Method: STANDARD PLATE): active; positive
- mutagenic call (Strain/Indicator: TA1538, Metabolic Activation: RAT, LIVER, S-9, PHENOBARBITAL, Method: STANDARD PLATE): inactive; negative

SMILES: CC(=O)NC[C@@H](O)COc1cccc2ccccc12
- mutagenic call (Strain/Indicator: TA98, Metabolic Activation: RAT, LIVER, S-9, AROCLOR 1254, Method: PREINCUBATION): inactive; negative
- mutagenic call (Strain/Indicator: TA100, Metabolic Activation: RAT, LIVER, S-9, AROCLOR 1254, Method: PREINCUBATION): inactive; negative
- mutagenic call (Strain/Indicator: TA102, Metabolic Activation: RAT, LIVER, S-9, AROCLOR 1254, Method: PREINCUBATION): inactive; negative
- mutagenic call (Strain/Indicator: TA104, Metabolic Activation: RAT, LIVER, S-9, AROCLOR 1254, Method: PREINCUBATION): inactive; negative
- mutagenic call (Strain/Indicator: TA1535, Metabolic Activation: RAT, LIVER, S-9, AROCLOR 1254, Method: PREINCUBATION): inactive; negative
- mutagenic call (Strain/Indicator: TA1538, Metabolic Activation: RAT, LIVER, S-9, AROCLOR 1254, Method: PREINCUBATION): inactive; negative
- mutagenic call (Strain/Indicator: YG1021, Metabolic Activation: RAT, LIVER, S-9, AROCLOR 1254, Method: PREINCUBATION): inactive; negative
- mutagenic call (Strain/Indicator: YG1024, Metabolic Activation: RAT, LIVER, S-9, AROCLOR 1254, Method: PREINCUBATION): inactive; negative
- mutagenic call (Strain/Indicator: YG1026, Metabolic Activation: RAT, LIVER, S-9, AROCLOR 1254, Method: PREINCUBATION): inactive; negative
- mutagenic call (Strain/Indicator: YG1029, Metabolic Activation: RAT, LIVER, S-9, AROCLOR 1254, Method: PREINCUBATION): inactive; negative
- mutagenic call (Strain/Indicator: YG1041, Metabolic Activation: RAT, LIVER, S-9, AROCLOR 1254, Method: PREINCUBATION): inactive; negative
- mutagenic call (Strain/Indicator: YG1042, Metabolic Activation: RAT, LIVER, S-9, AROCLOR 1254, Method: PREINCUBATION): inactive; negative
- mutagenic call (Strain/Indicator: YG3003, Metabolic Activation: RAT, LIVER, S-9, AROCLOR 1254, Method: PREINCUBATION): inactive; negative
